Test results as given in PMC7822874, “Chemoprotective antimalarials identified through quantitative high-throughput screening of Plasmodium blood and liver stage parasites” (Scientific Reports, 2021).
Read-outs that look alike come from different tables or passages of the source.

Experiments:
[1] = system: P. berghei-ANKA-GFP-LucCON liver stage parasites in HepG2-A16-CD81EGFP cells; experiment: P. berghei liver stage Pb-Luc assay, Method 1 (UCSD, 1536-well); assay type: cell-based, Plasmodium berghei; details: Plasmodium berghei, 48 h, average of 2 wells, 1536-well plate; for activity at 1 µM: nominal 1 uM (10 mM stock), […] for 15 mM, 1.2 uM for 12 mM, 2 uM for 20 mM stock; for activity at 3 µM: nominal 3 uM (10 mM stock), 4.5 uM for 15 mM, 3.6 uM for 12 mM, 6 uM for 20 mM stock; on all read-outs here: reference of the scale not given here
[2] = system: Plasmodium falciparum Dd2 asexual blood stage parasites; experiment: microbe, parasite or virus in culture; set-up: species or system Plasmodium falciparum Dd2 in human erythrocytes; single determination (one 11-point concentration-response curve); details: Plasmodium falciparum, DD2, Erythrocyte, 72 h; read-out: AC50
[3] = system: HepG2-A16-CD81EGFP cells
[4] = in vitro; details: human
[5] = repeat 1, read-out: Pb-Luc signal, 1 uM, repeat 1
[6] = repeat 2, read-out: Pb-Luc signal, 1 uM, repeat 2
[7] = repeat 3, read-out: Pb-Luc signal, 1 uM, repeat 3
[8] = repeat 1, read-out: Pb-Luc signal, 3 uM, repeat 1
[9] = repeat 2, read-out: Pb-Luc signal, 3 uM, repeat 2
[10] = repeat 3, read-out: Pb-Luc signal, 3 uM, repeat 3
[11] = nominal 1 uM (10 mM stock), […] for 15 mM, 1.2 uM for 12 mM, 2 uM for 20 mM stock, average of 2 wells, repeat 2
[12] = nominal 3 uM (10 mM stock), 4.5 uM for 15 mM, 3.6 uM for 12 mM, 6 uM for 20 mM stock, average of 2 wells, repeat 2
[13] = HepG2-A16-CD81EGFP cells, uninfected

| Structure (SMILES) | activity at 1 µM [1, 5] [%] | activity at 1 µM [1, 6] [%] | activity at 1 µM [1, 7] [%] | activity at 3 µM [1, 8] [%] | activity at 3 µM [1, 9] [%] | activity at 3 µM [1, 10] [%] | AC50 [2] [µM] | HepG2 viability signal, 1 uM, repeat 2 [3, 11] [%] | HepG2 viability signal, 3 uM, repeat 2 [3, 12] [%] | viability at 48 h, 1 µM [4, 13] [%] | viability at 48 h, 3 µM [4, 13] [%] | HepG2 viability signal, 1 uM, repeat 2 ([3]; human, 48 h, 1 µM) [%] | HepG2 viability signal, 3 uM, repeat 2 ([3]; human, 48 h, 3 µM) [%] | viability at 48 h, 1 µM [4] [%] | viability at 48 h, 3 µM [4] [%] |
| --- | --- | --- | --- | --- | --- | --- | --- | --- | --- | --- | --- | --- | --- | --- | --- |
| COC(=O)c1ccc2[nH]c(C[C@@H]3C[C@@H](C(C)C)[C@H](CNC4CCCCC4)C=C3C)nc2c1 [NCGC00401987-01] | 81.1 | 132 | 98.9 | 56.8 | 65 | 83.4 | 8.41 | 103.84 | 105.05 | 99.2 | 102 | – | – | – | – |
| c1ccc(Nc2cc3c(cn2)CN(Cc2ccc4[nH]ccc4c2)CCN3)cc1 [NCGC00411105-01] | 55.9 | 72.5 | 17.8 | 23.8 | 30.2 | 10.7 | 1.37 | 44.56 | 55.41 | 40.4 | 43.5 | – | – | – | – |
| Oc1ccccc1-c1cc(-c2cccnc2)c2cncn2c1 [NCGC00412170-01] | 103 | 117 | 108 | 100 | 122 | 76.4 | 1.72 | 95.01 | 100.05 | 98.3 | 101 | – | – | – | – |
| COc1cc2c(cc1OCc1ccccc1)N(C(=O)c1cc3ccccc3[nH]1)CC21CCN(C)CC1 [NCGC00419851-01] | 59.5 | 89.6 | 74.1 | 16.8 | 54.6 | 95.7 | 0.944 | – | – | – | – | 101.97 | 102.28 | 99 | 98.9 |
| CC1=C[C@@H](CN(C)C)[C@H](C(C)C)C[C@H]1Cc1nc2ncc(Cl)cc2[nH]1 [NCGC00421128-01] | 85.6 | 76 | 112 | 59.7 | 57.2 | 82.1 | 21.7 | 100.56 | 100.80 | 106 | 108 | – | – | – | – |
| CCC(CC)c1cc([C@H]2CN3CC[C@H]2C[C@@H]3CN[S+](=O)([O-])c2ccccc2C#N)nc(-c2ccncc2)n1 [NCGC00421343-01] | 72 | 78.5 | 103 | 49 | 52 | 66.9 | 1.5 | – | – | – | – | 105.19 | 104.55 | 110 | 110 |
| COc1cc(C(=O)NC2CCCc3c2[nH]c2c(Cl)cccc32)cc(OC)c1OC (centres unmarked) [NCGC00424034-01] | 122 | 161 | 165 | 157 | 165 | 156 | 2.11 | 98.86 | 98.35 | 101 | 98.2 | – | – | – | – |
| O=C(Nc1ccc2c(N3CCCC3)ncnc2c1)c1cccc(Br)c1 [NCGC00425495-01] | 70.5 | 86.1 | 85.5 | 34.5 | 39.4 | 21.9 | 0.668 | 101.29 | 98.07 | 101 | 97.5 | – | – | – | – |
| O=C(Nc1ccc2c(N3CCCC3)ncnc2c1)c1cccc(F)c1 [NCGC00425501-01] | 97.2 | 101 | 106 | 56.8 | 72.2 | 29.3 | 4.73 | 97.92 | 95.12 | 98.5 | 94.4 | – | – | – | – |
| O=C(Nc1ccc2c(N3CCOCC3)ncnc2c1)c1ccc(Br)o1 [NCGC00425547-01] | 126 | 99.1 | 129 | 123 | 89.4 | 131 | 2.66 | 103.01 | 102.12 | 110 | 106 | – | – | – | – |
| CCN(Cc1ccccc1)C(=O)CCC[C@@H]1[C@H]2CCCN3CCC[C@@H](CN1C(=O)c1ccccc1)[C@@H]23 [NCGC00429496-01] | 107 | 115 | 85.5 | 89.3 | 121 | 99.6 | 13.3 | 99.16 | 100.31 | 93.4 | 93.8 | – | – | – | – |
| CCOC(=O)C1(Cc2ccccc2Cl)CCNCC1 [NCGC00430911-01] | 78.1 | 97.3 | 89.2 | 74.5 | 106 | 93.5 | 2.66 | 100.98 | 101.65 | 94.6 | 94.7 | – | – | – | – |
| Fc1ccc(N2CCCN(C[C@H]3[C@@H]4CNC[C@@H]43)CC2)cc1 [NCGC00435915-01] | 97.7 | 120 | 120 | 53.5 | 38.2 | 21.5 | 8.41 | 103.90 | 120.28 | 102 | 124 | – | – | – | – |
| CCOc1ccc(Cl)cc1CN(C)CC1(O)CCCNC1 (centres unmarked) [NCGC00439019-01] | 133 | 111 | 171 | 102 | 113 | 128 | 2.99 | 100.51 | 101.33 | 99.5 | 96.9 | – | – | – | – |
| COc1cccc([C@@H]2CCN(Cc3[nH]c4ccccc4c3C)C[C@H]2O)c1 [NCGC00443267-01] | 83.1 | 92.1 | 74.1 | 85.2 | 118 | 62.2 | 1.5 | – | – | – | – | 93.46 | 93.99 | 91.9 | 96.2 |
| COc1ccc(-c2noc(-c3cccn3CC(=O)Nc3ccccc3F)n2)cc1F [NCGC00445496-01] | 109 | 140 | 144 | 172 | 189 | 163 | 4.22 | – | 99.66 | 98.5 | 101 | – | – | – | – |
| COc1ccc(-c2noc(-c3cccn3CC(=O)Nc3ccccc3)n2)cc1F [NCGC00445500-01] | 155 | 167 | 187 | 187 | 192 | 169 | 2.37 | 98.82 | 102.85 | 103 | 105 | – | – | – | – |
| CCOc1ccccc1CN1CCCN(Cc2ccncc2)C(c2ccccc2)CC(=O)NCC1 (centres unmarked) [NCGC00467181-01] | 105 | 89.1 | 111 | 102 | 80.2 | 86.4 | 6.68 | 96.74 | 96.24 | 101 | 96.8 | – | – | – | – |
